Laboratory results published in patent publication US12338236B2, “Benzoisothiazole and benzoisoxazole compounds for the treatment of mental disorders” (SUVEN LIFE SCIENCES LIMITED, priority 2022, dated 2025).
Counter-ions that a name gives are not always drawn.

Assays:
[1] = molecular target: T1, human histamine H1 receptor (Homo sapiens, UniProt P35367); assay: Determination of Ki values at histamine H1 receptor ([3H]-Pyrilamine SPA binding); conditions: hH1, CHO-K1, [3H]-Pyrilamine 2 nM
T1 construct: expressed in transfected cells; host or cells: CHO-K1
Experimental: Example-48: Determination of Ki values at Histamine H1 receptor
• Receptor source: Recombinant mammalian cells (CHO-K1) • Radioligand: [^3H]-Pyrilamine (20.7 Ci/mmol) • Final ligand concentration: 2 nM • Non-specific determinant: 0.1 mM Pyrilamine • Reference compound: Pyrilamine • Positive control: Pyrilamine Incubation conditions: Reactions were carried out in buffer with pH 7.4 containing 67 mM Tris-HCl and SPA beads (0.1 mg/well) for 1 h at 37° C. Radioactivity proximal to SPA beads was determined by scintillation proximity assay and compared to the control values in order to ascertain any interactions of the test compound(s) with cloned human histamine H1 receptor binding site.

human 5-HT1A receptor = molecular target: T2, human 5-HT1A receptor (Homo sapiens, UniProt P08908); assay: Determination of Ki values at 5-HT1A receptor ([3H]-8-Hydroxy DPAT radioligand binding); conditions: h5-HT1A, HEK293-EBNA, [3H]-8-Hydroxy DPAT 0.8 nM
T2 construct: expressed in transfected cells; host or cells: HEK293-EBNA
T2 sequence (P08908 1-422): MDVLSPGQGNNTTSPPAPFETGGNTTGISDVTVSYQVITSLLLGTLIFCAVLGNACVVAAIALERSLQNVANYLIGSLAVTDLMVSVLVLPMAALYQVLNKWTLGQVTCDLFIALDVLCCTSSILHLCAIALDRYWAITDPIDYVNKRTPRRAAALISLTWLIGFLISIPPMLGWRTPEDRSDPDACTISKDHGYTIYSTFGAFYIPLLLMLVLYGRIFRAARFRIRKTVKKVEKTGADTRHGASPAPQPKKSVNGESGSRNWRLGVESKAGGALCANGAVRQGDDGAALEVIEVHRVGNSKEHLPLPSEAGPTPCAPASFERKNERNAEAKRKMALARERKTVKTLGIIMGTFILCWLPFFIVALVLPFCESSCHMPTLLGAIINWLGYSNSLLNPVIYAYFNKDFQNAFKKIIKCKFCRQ
Experimental: Example-43: Determination of Ki Values at 5-HT1A Receptor
• Receptor source: Recombinant mammalian cells (HEK293-EBNA) • Radioligand: [^3H]-8-Hydroxy DPAT (200 Ci/mmol) • Final ligand concentration: 0.8 nM • Non-specific determinant: 0.1 mM U92016A • Reference compound: U92016A • Positive control: U92016A Incubation conditions: Reactions were carried out in buffer with pH 7.4 containing 50 mM Tris-HCl, 0.5 mM EDTA, 10 mM MgSO4, 0.1% Ascorbic acid for 2 h at RT. The reaction was terminated by rapid vacuum filtration onto the glass fiber filters. Radioactivity trapped onto the filters was determined and compared to the control values in order to ascertain any interactions of the test compound(s) with cloned human 5-HT1A receptor binding site.

[2] = molecular target: T3, human dopamine D2s receptor (Homo sapiens, UniProt P14416); assay: Determination of Ki values at D2S receptor ([3H]-Raclopride radioligand binding); conditions: hD2 (D2S), CHO-K1, [3H]-Raclopride 4 nM; read-out: Ki D2
T3 construct: expressed in transfected cells; host or cells: CHO-K1
Experimental: Example-45: Determination of Ki Values at D2S Receptor
• Receptor source: Recombinant mammalian cells (CHO-K1) • Radioligand: [^3H]-Raclopride (80.8 Ci/mmol) • Final ligand concentration: 4 nM • Non-specific determinant: 0.1 mM Haloperidol • Reference compound: Haloperidol • Positive control: Haloperidol Incubation conditions: Reactions were carried out in buffer with pH 7.4 containing 50 mM Tris-HCl, 120 mM NaCl, 5 mM KCl, 5 mM MgCl2, 1 mM EDTA for 2 h at RT. The reaction was terminated by rapid vacuum filtration onto the glass fiber filters. Radioactivity trapped onto the filters was determined and compared to the control values in order to ascertain any interactions of the test compound(s) with cloned human dopamine D2s receptor binding site.

human 5-HT2A receptor = molecular target: T4, human 5-HT2A receptor (Homo sapiens, UniProt P28223); assay: Determination of Ki values at 5-HT2A receptor ([3H]-Ketanserine radioligand binding); conditions: h5-HT2A, CHO-K1, [3H]-Ketanserine 1.25 nM
T4 construct: expressed in transfected cells; host or cells: CHO-K1
Experimental: Example-44: Determination of Ki Values at 5-HT2A Receptor
• Receptor source: Recombinant mammalian cells (CHO-K1) • Radioligand: [^3H]-Ketanserine (41.9 Ci/mmol) • Final ligand concentration: 1.25 nM • Non-specific determinant: 0.1 mM 1-Napthyl piperazine (1-NP) • Reference compound: 1-Napthyl piperazine (1-NP) • Positive control: 1-Napthyl piperazine (1-NP) Incubation conditions: Reactions were carried out in buffer with pH 7.4 containing 50 mM Tris-HCl, 4 mM CaCl2, 0.1% Ascorbic acid for 1 h at RT. The reaction was terminated by rapid vacuum filtration onto the glass fiber filters. Radioactivity trapped onto the filters was determined and compared to the control values in order to ascertain any interactions of the test compound(s) with cloned human 5-HT2A receptor binding site.

DOPA levels in striatum = assay: Reserpine-induced DOPA accumulation; assay type: in vivo, Male Wistar rats; conditions: rats, 3 mg/kg, p.o., 1.16 h before sacrifice, striatum
Experimental: Example-53: Reserpine-Induced DOPA Accumulation
Male Wistar rats were pretreated with reserpine (5 mg/kg, s.c.) approximately 18 h before sacrifice and were thereafter fasted until sacrifice. Example-2 (3 mg/kg, p.o.) and (3-(3-hydroxyphenyl)-N-n-propylpiperidine (3-PPP); 30 mg/kg, s.c.) were administered 1.16 h and 1 h, respectively before sacrifice. Haloperidol (0.5 mg/kg, s.c.) was used as a positive control and was dosed 10 min prior to 3-PPP in a separate group of animals. 3-Hydroxybenzylhydrazine dihydrochloride (NSD-1015; 100 mg/kg, s.c.) was then administered 0.5 h before sacrifice. Each rat was sacrificed, brain was removed and then striatum was isolated. The tissue was immediately weighed and homogenized in 0.1 N perchloric acid by means of an ultrasonic disruptor while being cooled in ice. The homogenate was centrifuged at 4° C. at 20,000 g for 15 min. The supernatant was assayed for dihydroxyphenylalanine (DOPA) levels using HPLC-ECD.

motor coordination = assay: Rat rotarod assay; assay type: in vivo; conditions: rats, doses of 3 & 10 mg/kg, 60 min prior to trial
Experimental: Example-52: Rat Rotarod Assay
The rotarod test was employed to investigate the possible effect of Example-2 on motor coordination. Twenty hours prior to the test, rats were trained to remain on revolving bar (4 rpm) of the rotarod apparatus (TSE Systems; GmHb, Germany). Animals that successfully stayed on rotating rod for 60 seconds (out of 4 trials per animal) were selected for further study. […] A single trial was carried out on the next day. Animals that were able to stay on the rotating rod for 60 seconds were chosen for further study. Animals were administered Example-2 or Vehicle 60 min prior to the trial. The latency to fall from the rotating rod was noted.

T1 sequence (P35367 whole entry): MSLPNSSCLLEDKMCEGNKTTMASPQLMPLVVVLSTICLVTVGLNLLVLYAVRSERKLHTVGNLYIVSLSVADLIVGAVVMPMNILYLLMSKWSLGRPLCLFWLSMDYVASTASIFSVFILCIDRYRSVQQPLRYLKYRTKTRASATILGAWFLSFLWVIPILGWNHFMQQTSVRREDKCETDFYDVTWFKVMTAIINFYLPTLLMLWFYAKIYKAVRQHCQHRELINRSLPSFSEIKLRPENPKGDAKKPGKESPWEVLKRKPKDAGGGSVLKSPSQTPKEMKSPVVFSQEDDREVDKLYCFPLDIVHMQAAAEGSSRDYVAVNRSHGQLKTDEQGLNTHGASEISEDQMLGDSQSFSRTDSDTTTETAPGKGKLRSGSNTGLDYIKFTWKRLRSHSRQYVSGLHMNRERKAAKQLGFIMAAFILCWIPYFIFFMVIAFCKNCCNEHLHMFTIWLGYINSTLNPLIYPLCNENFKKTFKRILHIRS
T3 sequence (P14416 1-414 isoform P14416-2): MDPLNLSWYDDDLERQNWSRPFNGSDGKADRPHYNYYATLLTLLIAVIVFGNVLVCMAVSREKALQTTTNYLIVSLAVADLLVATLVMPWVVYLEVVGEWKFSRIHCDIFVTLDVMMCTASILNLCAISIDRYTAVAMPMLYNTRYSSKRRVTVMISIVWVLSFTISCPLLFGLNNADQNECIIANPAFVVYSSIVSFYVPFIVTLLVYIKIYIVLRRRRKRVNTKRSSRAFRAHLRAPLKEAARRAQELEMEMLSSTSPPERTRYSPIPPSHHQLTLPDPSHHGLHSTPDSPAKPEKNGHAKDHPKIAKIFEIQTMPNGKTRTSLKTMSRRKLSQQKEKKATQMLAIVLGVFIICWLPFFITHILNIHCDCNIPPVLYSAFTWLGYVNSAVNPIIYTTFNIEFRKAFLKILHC
T4 sequence (P28223 whole entry): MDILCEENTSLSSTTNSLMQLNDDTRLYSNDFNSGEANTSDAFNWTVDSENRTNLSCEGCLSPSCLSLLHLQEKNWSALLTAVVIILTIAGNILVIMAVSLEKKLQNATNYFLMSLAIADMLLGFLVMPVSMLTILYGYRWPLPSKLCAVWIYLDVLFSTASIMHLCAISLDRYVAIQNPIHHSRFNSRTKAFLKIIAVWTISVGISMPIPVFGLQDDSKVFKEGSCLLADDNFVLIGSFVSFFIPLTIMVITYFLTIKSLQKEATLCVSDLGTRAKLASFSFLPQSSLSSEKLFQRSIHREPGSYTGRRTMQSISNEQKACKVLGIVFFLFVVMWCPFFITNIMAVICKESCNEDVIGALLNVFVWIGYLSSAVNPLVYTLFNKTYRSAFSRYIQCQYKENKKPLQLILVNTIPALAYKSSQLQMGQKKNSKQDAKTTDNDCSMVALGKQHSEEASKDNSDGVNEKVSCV

SMILES	Ki [1] [nM]	Ki (human 5-HT1A receptor) [nM]	Ki [2] [nM]	Ki (human 5-HT2A receptor) [nM]	Blockade of the effects of 3-PPP on reserpine induced DOPA accumulation (DOPA levels in striatum) [%]	Effect on motor coordination (latency to fall from rotating rod) (motor coordination)
Cc1noc(-c2csc(OCCCN3CCN(c4nsc5ccccc45)CC3)n2)n1 [compound 12, 3-(4-{3-[4-(3-Methyl-[1,2,4]oxadiazol-5-yl)-thiazol-2-yloxy]-propyl}-piperazin-1-yl)-benzo[d]isothiazole oxalate]	4.1	0.2	0.4	0.5	–	–
Cc1nnc(-c2csc(OCCCN3CCN(c4nsc5ccccc45)CC3)n2)o1 [Example-2, 3-(4-{3-[4-(5-Methyl-[1,3,4]oxadiazol-2-yl)-thiazol-2-yloxy]-propyl}-piperazin-1-yl)-benzo[d]isothiazole oxalate]	9.9	0.15	0.41	0.24	25	No notable effects on motor coordination
